Measured values from article PMC4264767, “Discovery of Two β-1,2-Mannoside Phosphorylases Showing Different Chain-Length Specificities from Thermoanaerobacter sp. X-514” (PLoS ONE, 2014).

Biological target: T1, Teth514_1788 (Thermoanaerobacter sp. X514, UniProt B0K2C2)
T1 construct: full-length, no signal peptide predicted, C-terminal His6-tag (pET24a) kept, E. coli Rosetta 2 (DE3); theoretical mass 33,997; homodimer
T1 sequence (B0K2C2 1-296): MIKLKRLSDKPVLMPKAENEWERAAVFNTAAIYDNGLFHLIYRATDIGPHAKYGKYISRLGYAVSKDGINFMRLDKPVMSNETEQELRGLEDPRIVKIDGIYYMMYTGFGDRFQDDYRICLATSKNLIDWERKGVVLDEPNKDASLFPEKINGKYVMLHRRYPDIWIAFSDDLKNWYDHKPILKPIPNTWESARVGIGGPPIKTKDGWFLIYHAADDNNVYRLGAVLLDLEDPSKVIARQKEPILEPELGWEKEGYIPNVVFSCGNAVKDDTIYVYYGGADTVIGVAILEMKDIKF
Assay: colorimetric α-Man1P release, sequential Bi Bi fit
Format: biochemical
Conditions: kinetic constant K iA of substrate A, no inhibition constant; phosphorolysis; Pi 0.10-2.0 mM; 40 mM MES-NaOH pH 6.0; 30°C

In the case of `OC[C@H]1O[C@@H](O[C@@H]2C(O)O[C@H](CO)[C@@H](O)[C@@H]2O)[C@@H](O)[C@@H](O)[C@@H]1O` (stereo partly drawn) [product 1, β-D-mannopyranosyl-(1→2)-D-mannose], the “K iA” value is reported as 0.63 ± 0.2 mM.

`OC[C@H]1O[C@@H](O[C@@H]2[C@H](O[C@@H]3C(O)O[C@H](CO)[C@@H](O)[C@@H]3O)O[C@H](CO)[C@@H](O)[C@@H]2O)[C@@H](O)[C@@H](O)[C@@H]1O` (stereo partly drawn) [product 2, β-D-mannopyranosyl-(1→2)-β-D-mannopyranosyl-(1→2)-D-mannose] was tested, and the “K iA” value was 2.1 ± 0.5 mM.

`OC[C@H]1O[C@@H](O[C@@H]2[C@H](O[C@@H]3[C@H](O[C@@H]4C(O)O[C@H](CO)[C@@H](O)[C@@H]4O)O[C@H](CO)[C@@H](O)[C@@H]3O)O[C@H](CO)[C@@H](O)[C@@H]2O)[C@@H](O)[C@@H](O)[C@@H]1O` (stereo partly drawn) [product 3, β-D-mannopyranosyl-(1→2)-β-D-mannopyranosyl-(1→2)-β-D-mannopyranosyl-(1→2)-D-mannose] was tested, and the “K iA” value was 1.9 ± 0.6 mM.
